PMC6595003, “Insights into real-time chemical processes in a calcium sensor protein-directed dynamic library” (Nature Communications, 2019)
“And” between values parts separate entries of the source, which are not always exact repeats. Equal entries are not always repeated. One block for each compound: values may come before it.

Legend:
[1] = commercial drugs; ref 5 (Hou et al., 2004); cited from earlier work
NCS-1/Ric8a interaction = test system: NCS-1/Ric8a interaction; set-up: method as in PMID 28119500, PMID 29966094; details: cited from earlier work
dNCS-1 = target: T1, dNCS-1 (Drosophila melanogaster, UniProt Q9VWX8); assay: Protein-directed DCL, HPLC-MS relative peak area with and without dNCS-1
T1 construct: made in house; host or cells: E. coli
T1 sequence (Q9VWX8 1-187): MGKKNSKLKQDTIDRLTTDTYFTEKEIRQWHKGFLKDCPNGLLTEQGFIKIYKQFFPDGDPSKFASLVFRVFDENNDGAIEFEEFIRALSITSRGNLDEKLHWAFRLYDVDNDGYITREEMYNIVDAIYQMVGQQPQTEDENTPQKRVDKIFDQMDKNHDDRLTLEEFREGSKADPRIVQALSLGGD
Protocol: The reversibility of the DCL was evident, since an identical equilibrium distribution to that shown in Fig. 4a was obtained when two different starting points were employed. The observed degree of amplification was 3b > 3e ≥ 3d > 3a. The precise composition of the DCL (with and without dNCS-1), was assessed by measuring the relative peak area (RPA). Indeed, the normalized change of RPA was used to quantify the protein influence in the final outcome (Supplementary Figs. 9, 10 and Supplementary Tables 1, 2 and 3)[28]. […] Note that compounds 3a–3e can exist as E/Z isomers of the C = N bond. […].
Aldehyde 1 (1.2 μL, 50 mM, DMSO), the five acylhydrazides 2a–2e (5 × 3.6 μL, 50 mM, DMSO), p-anisidine (1 μL, 12 M, DMSO) and buffer 20 mM Tris, 0.5 M NaCl and 1 mM CaCl2, 1 mM DTT at pH 7.4 (750 μL) in 3.3 % DMSO. The mixture was stabilized in 5 h at 4 °C. HPLC analysis was performed.
Aldehyde 1 (1.2 μL, 50 mM, DMSO), the five acylhydrazides 2a–2e (5 × 3.6 μL, 50 mM, DMSO), p-anisidine (1 μL, 12 mM, DMSO) and dNCS-1 in buffer 20 mM Tris, 0.5 M NaCl and 1 mM CaCl2, 1 mM DTT at pH 7.4 (66.7 μM, 750 μL, 1 eq.). The experiment is in 3.3% DMSO. The mixture was stabilized for 5 h at 4 °C. Then, dNCS-1 was removed by ultrafiltration using an Amicon Ultra filter (0.5–10 KDa). HPLC analysis was performed and the traces were compared with the blank composition.
Supplementary Figure 9. Relative Peak Area of the DCL with and without dNCS1. Aldehyde
1 (1.2 µL, 50 mM), 2a-e (3.6 µL, 50 mM), catalyst (1 µL, 12 M), dNCS-1:1 [1:1], tris buffer (20
mM, pH 7.4), 1 mM CaCl2, 0.5 M NaCl, 1 mM DTT, T = 4 °C, 2% DM SO. Mean relative peak
area (RPA) of each acylhydrazone of the library in the absence (blank) and presence of dNCS-1.
Error bars indicate standard deviation (SD) over three experiments. The calculation is set by the
sum of all peak areas to 100% and assigning each peak its percentage. Source data are provided
R P A N o rm aliz ed V a riation
Supplementary Figure 10. RPA normalized of variation of DCL with and without dNCS1.
Aldehyde 1 (1.2 µL, 50 mM), 2a-e (3.6 µL, 50 mM), catalyst (1 µL, 12 M), dNCS-1:1 [1:1], tris
buffer (20 mM, pH 7.4), 1 mM CaCl2, 0.5 M NaCl, 1 mM DTT, T = 4 °C, 2% DM SO. Error
bars indicate SD over three experiments. Source data are provided as a Source Data file.

[2] = Parallel artificial membrane permeability assay (PAMPA-BBB); type: in vitro ADME; details: for Papp at 2.5 h: pig, PAMPA-BBB, pH 7.4, 5% DMSO, 2 h 30 min at 25 °C, mean ± SD, read-out: Pe, in vitro permeability; for Pe (10-6 cm s-1) Experimental 1 / Pe (10-6 cm s-1) Experimental 2 / Pe (10-6 cm s-1) Experimental 3: source data
Text: The PAMPA methodology is a high-throughput technique to predict passive permeability through biological membranes that employs a brain lipid porcine as membrane. […]
From this equation and following the pattern established in the literature for BBB permeation prediction2 we could classify compounds as CNS + when they present a permeability > 4.50 x 10-6 cm s-1. Source data are provided as a Source Data file. […]
Parallel artificial membrane permeability assays. Prediction of the brain penetration was evaluated using a parallel artificial membrane permeability assay (PAMPA).4 Ten commercial drugs, phosphate buffer saline solution at pH 7.4 (PBS). DMSO and dodecane were purchased from Sigma, Across organics, Aldrich and Fluka. The porcine […]
plate was a 96-well filtrate plate (Multiscreen® IP Sterile Plate PDVF membrane, pore […]
MAIPS4510) and the acceptor plate was an indented 96-well plate (Multiscreen®, catalog no. MAMCS9610) both from Millipore. Filter PDVF […]
membrane units (diameter 30 mm, pore size 0.45 µm) from Symta were used to filter the samples. A 96-well plate UV reader (Thermoscientific, Multiskan spectrum) was used for the UV measurements.

Structure (SMILES): O=C1CN(/N=C/c2ccc([N+](=O)[O-])o2)C(=O)N1 [Nitrofurantoin]
Experimental log S [1]: -3.47

Structure (SMILES): CN(C)C(=O)Nc1ccc(Cl)c(Cl)c1 [Diuron]
Experimental log S [1]: -3.80

Structure (SMILES): CCOC(=O)c1ccc(N)cc1 [Benzocaine]
Experimental log S [1]: -2.32

Structure (SMILES): CCOC(=O)CC(SP(=S)(OC)OC)C(=O)OCC (stereo not shown) [Malathion]
Experimental log S [1]: -3.37

Structure (SMILES): O=C(CC(c1ccccc1)c1ccccc1)Nc1nc2ccccc2s1 [IGS-1.76]
reported inhibition of the NCS-1/Ric8a interaction (NCS-1/Ric8a interaction): strong

Structure (SMILES): Cl[C@H]1[C@H](Cl)[C@@H](Cl)[C@@H](Cl)[C@H](Cl)[C@H]1Cl [Lindane]
Experimental log S [1]: -4.64

RPA, Blank DCL (dNCS-1; as fraction of total area): 0.3277 | RPA, Templated DCL (dNCS-1; as fraction of total area, with dNCS-1): 0.4342 | RPA (%) with protein (templated DCL) (dNCS-1; relative peak area in presence of dNCS-1): 43.4% and 43.4187% | RPA (%) without protein (blank DCL) (dNCS-1; relative peak area, sum of all peak areas set to 100%): 32.8% and 32.7742% | RPA (%), Blank DCL (dNCS-1; sheet Supplementary Figure 10): 32.8% | RPA (%), Templated DCL (dNCS-1; sheet Supplementary Figure 10, with dNCS-1): 43.4%
Structure (SMILES): O=C(N/N=C/c1ccc([N+](=O)[O-])c(O)c1)c1cccs1 [3e]

Papp at 2.5 h [2]: 9.5 ± 0.6 ×10⁻⁶ cm/s | Pe (10-6 cm s-1) Experimental 1 [2]: 9.5 10-6 cm s-1 | Pe (10-6 cm s-1) Experimental 2 [2]: 9.04 10-6 cm s-1 | Pe (10-6 cm s-1) Experimental 3 [2]: 9.94 10-6 cm s-1
Structure (SMILES): CN(C)CCCN1c2ccccc2Sc2ccccc21 [Promazine]

Structure (SMILES): CC(=O)Oc1ccccc1C(=O)O [Aspirin]
Experimental log S [1]: -1.72

Pe (10-6 cm s-1) Experimental 2 [2]: 16.20 10-6 cm s-1 | Pe (10-6 cm s-1) Experimental 3 [2]: 13.70 10-6 cm s-1
Structure (SMILES): CNCCCN1c2ccccc2CCc2ccccc21 [Desipramine]

Pe (10-6 cm s-1) Experimental 1 [2]: 1.4 10-6 cm s-1 | Pe (10-6 cm s-1) Experimental 2 [2]: 1.30 10-6 cm s-1 | Pe (10-6 cm s-1) Experimental 3 [2]: 1.47 10-6 cm s-1
Structure (SMILES): CCn1cc(C(=O)O)c(=O)c2cc(F)c(N3CCNCC3)nc21 [Enoxacin]

Structure (SMILES): O=C(CN1CCCCC1)NN1c2ccccc2Sc2ccccc21 [FD44]
reported inhibition of the NCS-1/Ric8a interaction (NCS-1/Ric8a interaction): strong

Structure (SMILES): CCOP(=S)(OCC)Oc1ccc([N+](=O)[O-])cc1 [Parathion]
Experimental log S [1]: -4.66

Structure (SMILES): O=C1NC(=O)C(c2ccccc2)(c2ccccc2)N1 [Phenytoin]
Experimental log S [1]: -3.99

Structure (SMILES): O=C1OC(c2ccc(O)cc2)(c2ccc(O)cc2)c2ccccc21 [Phenolpthalein]
Experimental log S [1]: -2.60

Papp at 2.5 h [2]: 1.3 ± 0.2 ×10⁻⁶ cm/s | Pe (10-6 cm s-1) Experimental 1 [2]: 1.3 10-6 cm s-1 | Pe (10-6 cm s-1) Experimental 2 [2]: 1.16 10-6 cm s-1 | Pe (10-6 cm s-1) Experimental 3 [2]: 1.44 10-6 cm s-1
Structure (SMILES): CN1C(C(=O)Nc2ccccn2)=C(O)c2ccccc2S1(=O)=O [Piroxicam]

Structure (SMILES): Cn1c(=O)c2c(ncn2C)n(C)c1=O [Caffeine]
Pe (10-6 cm s-1) Experimental 1 [2]: 1.3 10-6 cm s-1 | Pe (10-6 cm s-1) Experimental 2 [2]: 0.87 10-6 cm s-1 | Pe (10-6 cm s-1) Experimental 3 [2]: 1.70 10-6 cm s-1

Structure (SMILES): CCOP(=S)(OCC)Oc1nc(Cl)c(Cl)cc1Cl [Chlorpyriphos]
Experimental log S [1]: -5.49
